This is an account of results in patent US11236106B2, “Cycloalkane-1,3-diamine derivative” (Daiichi Sankyo Company, Limited, priority 2018, dated 2022).

pIC50: −log10 of the molar value. Where a name gives a salt, the structure may show the parent alone.

The target of one experiment is T1, menin and MLL (menin, Flag tagged; biotinylated MLL1 peptide 1-46aa) (Homo sapiens, UniProt O00255).
T1 sequence (O00255 1-610): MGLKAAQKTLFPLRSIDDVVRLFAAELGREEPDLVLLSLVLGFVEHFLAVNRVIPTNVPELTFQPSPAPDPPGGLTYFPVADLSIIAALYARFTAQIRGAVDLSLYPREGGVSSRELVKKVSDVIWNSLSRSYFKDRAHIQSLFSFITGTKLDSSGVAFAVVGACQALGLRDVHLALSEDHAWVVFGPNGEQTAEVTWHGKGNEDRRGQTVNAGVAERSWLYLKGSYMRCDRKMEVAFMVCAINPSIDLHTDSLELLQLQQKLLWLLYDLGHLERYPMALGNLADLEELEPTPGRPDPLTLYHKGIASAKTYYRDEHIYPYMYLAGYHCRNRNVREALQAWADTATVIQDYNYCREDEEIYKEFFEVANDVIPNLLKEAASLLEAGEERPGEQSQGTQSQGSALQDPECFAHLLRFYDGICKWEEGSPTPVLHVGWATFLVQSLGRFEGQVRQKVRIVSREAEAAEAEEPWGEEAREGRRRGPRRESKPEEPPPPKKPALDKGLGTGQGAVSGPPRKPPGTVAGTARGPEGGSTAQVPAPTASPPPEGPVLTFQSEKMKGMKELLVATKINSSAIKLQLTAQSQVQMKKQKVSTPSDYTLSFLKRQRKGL
The experiment can be described thus: biochemical.
Conditions: not given
By pIC50 is commonly meant −log10 of the IC50, conventionally taken in molar units. Compound `COc1ncc(-c2ccc(CN[C@H]3C[C@@H](O)[C@@H](N(C)c4ncnc5sc(CC(F)(F)F)cc45)C3)cc2)nc1OC` [Example 96, (1R,2S,4R)-4-({[4-(5,6-dimethoxypyrazin-2-yl)phenyl]methyl}amino)-2-{methyl[6-(2,2,2-trifluoroethyl)thieno[2,3-d]pyrimidin-4-yl]amino}cyclopentan-1-ol hydrochloride] had a pIC50 of 8.57.

Still in this experiment, the particulars now being: IC50, binding inhibitory activity between menin and MLL, AlphaLISA; 1 nM menin, 10 nM biotinylated MLL1 peptide.
In turn, `COc1cc(-c2ccc(CN[C@H]3C[C@@H](O)[C@@H](N(C)c4ncnc5sc(CC(F)(F)F)cc45)C3)c(F)c2)cnc1OC` [Example 76, (1R,2S,4R)-4-({[4-(5,6-dimethoxypyridin-3-yl)-2-fluorophenyl]methyl}amino)-2-{methyl[6-(2,2,2-trifluoroethyl)thieno[2,3-d]pyrimidin-4-yl]amino}cyclopentan-1-ol hydrochloride] showed a pIC50 of 8.07.

Turning to `COc1cc(-c2ccc(CN[C@H]3C[C@@H](O)[C@@H](N(C)c4ncnc5sc(CC(F)(F)F)cc45)C3)cc2)nnc1Cl` [Example 84, (1R,2S,4R)-4-({[4-(6-chloro-5-methoxypyridazin-3-yl)phenyl]methyl}amino)-2-{methyl[6-(2,2,2-trifluoroethyl)thieno[2,3-d]pyrimidin-4-yl]amino}cyclopentan-1-ol hydrochloride], the pIC50 is 8.57. On the same count and under the same terms, as for `COc1cncc(-c2ccc(CN[C@H]3C[C@@H](O)[C@@H](N(C)c4ncnc5sc(CC(F)(F)F)cc45)C3)cc2)c1` [Example 129, (1R,2S,4R)-4-({[4-(5-methoxypyridin-3-yl)phenyl]methyl}amino)-2-{methyl[6-(2,2,2-trifluoroethyl)thieno[2,3-d]pyrimidin-4-yl]amino}cyclopentan-1-ol Hydrochloride], the figure is 8.26; as for `COc1nc(N(C)[C@H]2C[C@@H](NCC3CCN(c4cc(OC)c(OC)nn4)CC3)C[C@H]2O)c2cc(CC(F)(F)F)sc2n1` [Example 115, (1R,2S,4R)-4-({[1-(5,6-dimethoxypyridazin-3-yl)piperidin-4-yl]methyl}amino)-2-{[2-methoxy-6-(2,2,2-trifluoroethyl)thieno[2,3-d]pyrimidin-4-yl](methyl)amino}cyclopentan-1-ol hydrochloride], 7.96; as for `COc1nc(N(C)[C@H]2C[C@@H](NCc3ccc(-c4cnc(S(C)(=O)=O)c(OC)c4)cc3)C[C@H]2O)c2cc(CC(F)(F)F)sc2n1` [Example 94, (1R,2S,4R)-4-[({4-[6-(methanesulfonyl)-5-methoxypyridin-3-yl]phenyl}methyl)amino]-2-{[2-methoxy-6-(2,2,2-trifluoroethyl)thieno[2,3-d]pyrimidin-4-yl](methyl)amino}cyclopentan-1-ol hydrochloride], 8.68. On the same count and under the same terms, the result for `COc1nc(N(C)[C@H]2C[C@@H](NCc3ccc(-c4cnc(N(C)C)c(OC)c4)cc3)C[C@H]2O)c2cc(CC(F)(F)F)sc2n1` [Example 117, (1R,2S,4R)-4-[({4-[6-(dimethylamino)-5-methoxypyridin-3-yl]phenyl}methyl)amino]-2-{[2-methoxy-6-(2,2,2-trifluoroethyl)thieno[2,3-d]pyrimidin-4-yl](methyl)amino}cyclopentan-1-ol hydrochloride] reads 8.85.

`CN(c1ncnc2sc(CC(F)(F)F)cc12)[C@H]1C[C@@H](NCc2ccc(-c3cccc(CS(C)(=O)=O)c3)cc2)C[C@H]1O` [Example 86, (1R,2S,4R)-4-[({3′-[(methanesulfonyl)methyl][1,1′biphenyl]-4-yl}methyl)amino]-2-{methyl[6-(2,2,2 trifluoroethyl)thieno[2,3-d]pyrimidin-4-yl]amino}cyclopentan-1-ol hydrochloride]: the pIC50 was 7.68. Same read-out and setting: the result for `CNc1nc(N(C)[C@H]2C[C@@H](NCc3ccc(-c4ccc(F)c(OC)c4F)cc3)C[C@H]2O)c2cc(CC(F)(F)F)sc2n1` [Example 87, (1R,2S,4R)-4-{[(2′,4′-difluoro-3′-methoxy[1,1′-biphenyl]-4-yl)methyl]amino}-2-{methyl[2-(methylamino)-6-(2,2,2-trifluoroethyl)thieno[2,3-d]pyrimidin-4-yl]amino}cyclopentan-1-ol hydrochloride] reads 8.18. Same read-out and setting: as for `CN(c1ncnc2sc(CC(F)(F)F)cc12)[C@H]1C[C@@H](NCc2ccc(-c3cncc4ccccc34)cc2)C[C@H]1O` [Example 83, (1R,2S,4R)-4-({[4-(isoquinolin-4-yl)phenyl]methyl}amino)-2-{methyl[6-(2,2,2-trifluoroethyl)thieno[2,3-d]pyrimidin-4-yl]amino}cyclopentan-1-ol hydrochloride], the figure is 8.31; as for `CN(c1ncnc2sc(CC(F)(F)F)cc12)[C@H]1C[C@@H](NCc2ccc(-c3cnc(Cl)c4cc[nH]c34)cc2)C[C@H]1O` [Example 70, (1R,2S,4R)-4-({[4-(4-chloro-1H-pyrrolo[3,2-c]pyridin-7-yl)phenyl]methyl}amino)-2-{methyl[6-(2,2,2-trifluoroethyl)thieno[2,3-d]pyrimidin-4-yl]amino}cyclopentan-1-ol hydrochloride], 8.42; as for `COc1nc(N(C)[C@H]2C[C@@H](NCc3ccc(-c4cnc(C#N)c(OC)c4)cc3)C[C@H]2O)c2cc(CC(F)(F)F)sc2n1` [Example 106, 5-[4-({[(1R,3R,4S)-3-hydroxy-4-{[2-methoxy-6-(2,2,2-trifluoroethyl)thieno[2,3-d]pyrimidin-4-yl](methyl)amino}cyclopentyl]amino}methyl)phenyl]-3-methoxypyridine-2-carbonitrile hydrochloride], 9.15. `COc1cc(-c2ccc(CN[C@H]3CC[C@H](OC)[C@@H](Nc4ncnc5sc(CC(F)(F)F)cc45)C3)cc2)nnc1OC` [Example 126, (1S,3S,4S)—N^1-{[4-(5,6-dimethoxypyridazin-3-yl)phenyl]methyl}-4-methoxy-N^3-[6-(2,2,2-trifluoroethyl)thieno[2,3-d]pyrimidin-4-yl]cyclohexane-1,3-diamine Hydrochloride] had a pIC50 of 8.12. This pIC50 is 1.03 log units lower than that of the compound before.

The experiment is the same for the next values; noted with them: cell free IC50 (nM), 1 nM menin, 10 nM biotinylated MLL1 peptide, AlphaLISA.
What is called IC50 is the point on the concentration scale where inhibition reaches its midpoint. A lower IC50 goes with inhibition by little substance. Consider `COc1cncc(-c2ccc(CN[C@H]3CC[C@@H](N(C)c4nc(C)nc5sc(CC(F)(F)F)cc45)C3)cn2)c1` [Example 46, (1R,3S)-N^3-[(5′-methoxy[2,3′-bipyridine]-5-yl)methyl]-N^1-methyl-N^1-[2-methyl-6-(2,2,2-trifluoroethyl)thieno[2,3-d]pyrimidin-4-yl]cyclopentane-1,3-diamine hydrochloride], for which the IC50 is 39.4 nM. Same read-out and setting: as for `N#Cc1cc2cc(CN[C@@H]3CC[C@@H](Nc4ncnc5sc(CC(F)(F)F)cc45)C3)ccc2[nH]1` [Example 1, 5-({[(1R,3R)-3-{[6-(2,2,2-trifluoroethyl)thieno[2,3-d]pyrimidin-4-yl]amino}cyclopentyl]amino}methyl)-1H-indole-2-carbonitrile Hydrochloride], the figure is 494 nM. Still for that read-out and setting: the result for `C=CC(=O)NCCCNC(=O)c1ccc(CN[C@H]2CC[C@@H](N(C)c3ncnc4sc(CC(F)(F)F)cc34)C2)cc1` [Example 6, 4-({[(1S,3R)-3-{methyl[6-(2,2,2-trifluoroethyl)thieno[2,3-d]pyrimidin-4-yl]amino}cyclopentyl]amino}methyl)-N-{3-[(prop-2-enoyl)amino]propyl}benzamide Hydrochloride] reads 81.9 nM; that for `CN(c1ncnc2sc(CC(F)(F)F)cc12)[C@@H]1CC[C@H](NCc2ccc(-c3cnc4ccoc4c3)cc2)C1` [Example 14, (1R,3S)—N^3-{[4-(furo[3,2-b]pyridin-6-yl)phenyl]methyl}-N^1-methyl-N^1-[6-(2,2,2-trifluoroethyl)thieno[2,3-d]pyrimidin-4-yl]cyclopentane-1,3-diamine Hydrochloride], 27.4 nM; that for `COc1cncc(-c2ccc(CN[C@@H]3C[C@H](N(C)c4ncnc5sc(CC(F)(F)F)cc45)[C@@H](O)[C@H]3O)cc2)c1` [Example 20B, (1R,2S,3R,5S)-3-({[4-(5-methoxypyridin-3-yl)phenyl]methyl}amino)-5-{methyl[6-(2,2,2-trifluoroethyl)thieno[2,3-d]pyrimidin-4-yl]amino}cyclopentane-1,2-diol Hydrochloride], 16.4 nM. The same measure, in the same setting: as for `Cc1c(CN[C@H]2CC[C@@H](N(C)c3ncnc4sc(CC(F)(F)F)cc34)C2)ccc2c1cc(C#N)n2Cc1cn[nH]c1` [Example 2, 4-methyl-5-({[(1S,3R)-3-{methyl[6-(2,2,2-trifluoroethyl)thieno[2,3-d]pyrimidin-4-yl]amino}cyclopentyl]amino}methyl)-1-[(1H-pyrazol-4-yl)methyl]-1H-indole-2-carbonitrile Hydrochloride], the figure is 12.8 nM; as for `COc1cncc(-c2ccc(CN[C@@H]3C[C@H](Nc4ncnc5sc(CC(F)(F)F)cc45)CC(F)(F)C3)cc2)c1` [Example 52, (1R,3S)-5,5-difluoro-N^1-{[4-(5-methoxypyridin-3-yl)phenyl]methyl}-N^3-[6-(2,2,2-trifluoroethyl)thieno[2,3-d]pyrimidin-4-yl]cyclohexane-l,3-diamine hydrochloride], 612 nM.
